The results in this text go back to PubChem BioAssay AID248 (DTP/NCI, 2004).

Several values for one entry are separate records, joined by “and”; a condition that tells them apart may be missing. Equal entries are not always repeated. Toxic doses and inconclusive results are not listed.

For the assay, the system named is L1210 leukemia ip in BDF1 mice, survival T/C. The assay can be described thus: NCI In Vivo Anticancer Drug Screen. Data for tumor model L1210 Leukemia (intraperitoneal) in B6D2F1 (BDF1) mice. The settings on record: endpoint: mean survival time, higher = longer survival. The gist of the method:
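Ratio derived from survival: compound-dosed mice over vehicle-dosed mice, all bearing a transplantable tumor.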

Setting [1] is: dose: 100.0 mg/kg/injection, schedule: Q01DX001 (ip), vehicle: Klucel (hydroxypropylcellulose) (HPC).
The mark [2] stands for this setting: dose: 200.0 mg/kg/injection, schedule: Q01DX001 (ip), vehicle: Klucel (hydroxypropylcellulose) (HPC).
The mark [3] stands for this setting: dose: 400.0 mg/kg/injection, schedule: Q01DX001 (ip), vehicle: Klucel (hydroxypropylcellulose) (HPC).
Where [4] appears, read: dose: 100.0 mg/kg/injection, schedule: Q01DX009 (ip), vehicle: Klucel (hydroxypropylcellulose) (HPC).
Where [5] appears, read: dose: 200.0 mg/kg/injection, schedule: Q01DX009 (ip), vehicle: Klucel (hydroxypropylcellulose) (HPC).
[6] abbreviates: dose: 400.0 mg/kg/injection, schedule: Q01DX009 (ip), vehicle: Klucel (hydroxypropylcellulose) (HPC).
Setting [7] is: dose: 100.0 mg/kg/injection, schedule: Q04DX002 (ip), vehicle: saline.
Setting [8] is: dose: 200.0 mg/kg/injection, schedule: Q04DX002 (ip), vehicle: saline.
[9] abbreviates: dose: 100.0 mg/kg/injection, schedule: Q04DX003 (ip), vehicle: saline.
The mark [10] stands for this setting: dose: 200.0 mg/kg/injection, schedule: Q04DX003 (ip), vehicle: saline.
Where [11] appears, read: dose: 400.0 mg/kg/injection, schedule: Q04DX003 (ip), vehicle: saline.
Where [12] appears, read: dose: 25.0 mg/kg/injection, schedule: Q01DX009 (ip), vehicle: saline.
Setting [13] is: dose: 25.0 mg/kg/injection, schedule: Q04DX003 (ip), vehicle: saline.
Setting [14] is: dose: 50.0 mg/kg/injection, schedule: Q04DX003 (ip), vehicle: saline.
[15] abbreviates: dose: 100.0 mg/kg/injection, schedule: Q04DX002 (ip), vehicle: Klucel (hydroxypropylcellulose) (HPC).
[16] abbreviates: dose: 200.0 mg/kg/injection, schedule: Q04DX002 (ip), vehicle: Klucel (hydroxypropylcellulose) (HPC).
[17] abbreviates: dose: 100.0 mg/kg/injection, schedule: Q01DX009 (ip), vehicle: saline with Tween-80.
Setting [18] is: dose: 100.0 mg/kg/injection, schedule: Q04DX003 (ip), vehicle: Klucel (hydroxypropylcellulose) (HPC).
[19] abbreviates: dose: 200.0 mg/kg/injection, schedule: Q04DX003 (ip), vehicle: Klucel (hydroxypropylcellulose) (HPC).
The mark [20] stands for this setting: dose: 400.0 mg/kg/injection, schedule: Q04DX003 (ip), vehicle: Klucel (hydroxypropylcellulose) (HPC).
The mark [21] stands for this setting: dose: 100.0 mg/kg/injection, schedule: Q04DX003 (ip), vehicle: saline with Tween-80.
The mark [22] stands for this setting: dose: 100.0 mg/kg/injection, schedule: Q01DX009 (ip), vehicle: saline.

Turning to `CN(C)/N=C(\Cc1ccccc1)c1ccccc1`, the T/C reads like this: under setting [1], 99 % of control; under setting [2], 99 % of control; under setting [3], 98 % of control.

With `CC12CC(=O)OC1(C)C1CCC2C1` (configuration not stated), the T/C (dose: 6.25 mg/kg/injection, schedule: Q01DX009 (ip), vehicle: acetone) is 111 % of control; the T/C (dose: 6.25 mg/kg/injection, schedule: Q04DX003 (ip), vehicle: acetone) was 101 % of control; the T/C (dose: 12.5 mg/kg/injection, schedule: Q01DX001 (ip), vehicle: acetone) is 96 % of control; the T/C (dose: 12.5 mg/kg/injection, schedule: Q01DX009 (ip), vehicle: acetone) was 92 % of control; the T/C (dose: 12.5 mg/kg/injection, schedule: Q04DX003 (ip), vehicle: acetone) is 101 % of control; the T/C (dose: 25.0 mg/kg/injection, schedule: Q01DX001 (ip), vehicle: acetone) is 112 % of control. In addition, the T/C (dose: 25.0 mg/kg/injection, schedule: Q04DX003 (ip), vehicle: acetone) was 97 % of control.

As for `C[n+]1nc2ccccc2c(=Nc2ccccc2[N+](=O)[O-])[n-]1`, the T/C under setting [1] is 93 % of control, the T/C under setting [2] is 94 % of control and the T/C under setting [3] is 94 % of control.

Take `COc1ccccc1C(=O)P(=O)(OC)OC`: the T/C is, setting by setting: (dose: 100.0 mg/kg/injection, schedule: Q01DX001 (ip), vehicle: saline) 104 % of control; (dose: 200.0 mg/kg/injection, schedule: Q01DX001 (ip), vehicle: saline) 93 % of control; (dose: 400.0 mg/kg/injection, schedule: Q01DX001 (ip), vehicle: saline) 95 % of control.

For the compound `Cc1ccc([N+](=O)[O-])cc1NC(=O)Nc1ccc([N+](=O)[O-])cc1`, the T/C runs as follows: under setting [4], 90 % of control; under setting [5], 90 % of control; under setting [6], 98 % of control.

Consider `NC(N)=NCC(=O)O`, for which the T/C is 105 % of control (dose: 75.0 mg/kg/injection, schedule: Q01DX001 (ip), vehicle: saline with Tween-80); 100 % of control (dose: 150.0 mg/kg/injection, schedule: Q01DX001 (ip), vehicle: saline with Tween-80); 102 % of control (dose: 300.0 mg/kg/injection, schedule: Q01DX001 (ip), vehicle: saline with Tween-80).

On to `Cc1cc(C)nc(N(C)CC(=O)O)n1`, for which the T/C by setting is: (dose: 50.0 mg/kg/injection, schedule: Q04DX002 (ip), vehicle: saline) 100 % of control; under setting [7], 95 % of control; under setting [8], 103 % of control.

For the compound `O=P(Cc1ccccc1)(N1CCOCC1)N1CCOCC1`, the T/C reads like this: under setting [9], 100 % of control; under setting [10], 93 % of control; under setting [11], 104 % of control.

With `CCCN(CCC)P(c1ccccc1)N(CCC)CCC`, the T/C by setting is: (dose: 100.0 mg/kg/injection, schedule: Q04DX002 (ip), vehicle: saline with Tween-80) 93 % of control; (dose: 200.0 mg/kg/injection, schedule: Q04DX002 (ip), vehicle: saline with Tween-80) 101 % of control.

`CN(C)C(=O)Nc1ccncc1`: the T/C by setting is: (dose: 25.0 mg/kg/injection, schedule: Q01DX001 (ip), vehicle: saline) 97 % of control; under setting [12], 98 % of control and 91 % of control; (dose: 25.0 mg/kg/injection, schedule: Q04DX002 (ip), vehicle: saline with Tween-80) 93 % of control and 97 % of control; under setting [13], 103 % of control; (dose: 50.0 mg/kg/injection, schedule: Q01DX001 (ip), vehicle: saline) 95 % of control; (dose: 50.0 mg/kg/injection, schedule: Q01DX009 (ip), vehicle: saline) 97 % of control and 88 % of control. Further, the T/C (dose: 50.0 mg/kg/injection, schedule: Q04DX002 (ip), vehicle: saline with Tween-80) is 98 % of control and 105 % of control; the T/C under setting [14] is 101 % of control.

`O=C(NC1CCCCC1)Oc1ccc2ccccc2c1`: the T/C is, setting by setting: under setting [15], 102 % of control; under setting [16], 100 % of control; (dose: 400.0 mg/kg/injection, schedule: Q04DX002 (ip), vehicle: Klucel (hydroxypropylcellulose) (HPC)) 107 % of control.

Take `CN(C=O)c1ccccc1`: the T/C is 106 % of control under setting [7]; 102 % of control under setting [8]; 95 % of control (dose: 400.0 mg/kg/injection, schedule: Q04DX002 (ip), vehicle: saline).

For the compound `O=C(NCCCl)NC(C1CC1)C1CC1`, the T/C is, setting by setting: under setting [17], 94 % of control; (dose: 200.0 mg/kg/injection, schedule: Q01DX009 (ip), vehicle: saline with Tween-80) 94 % of control.

Turning to `CNCC(=O)Nc1ccc(NC(=O)CNC)cc1`, the T/C was 96 % of control under setting [15] and 104 % of control under setting [16].

As for `CC(O)NC(=O)C1CC2c3cccc4[nH]cc(c34)CC2N(C)C1` (configuration not stated), the T/C is 100 % of control under setting [18], 97 % of control under setting [19] and 105 % of control under setting [20].

Turning to `O=[N+]([O-])c1cccc(S(=O)(=O)N2CCN(S(=O)(=O)c3cccc([N+](=O)[O-])c3)C2)c1`, the T/C reads like this: under setting [4], 95 % of control; under setting [18], 97 % of control; under setting [5], 103 % of control; under setting [19], 93 % of control; under setting [6], 97 % of control; under setting [20], 97 % of control.

For `CCN(CC)S(=O)(=O)c1cccc(C(=O)CC(O)(C(F)(F)F)C(F)(F)F)c1`, the T/C is, setting by setting: under setting [21], 94 % of control; (dose: 200.0 mg/kg/injection, schedule: Q04DX003 (ip), vehicle: saline with Tween-80) 102 % of control; (dose: 400.0 mg/kg/injection, schedule: Q04DX003 (ip), vehicle: saline with Tween-80) 108 % of control.

In the case of `COC(=O)c1ccc(CBr)cc1`, the T/C is 97 % of control (dose: 25.0 mg/kg/injection, schedule: Q01DX009 (ip), vehicle: saline with Tween-80); 90 % of control (dose: 50.0 mg/kg/injection, schedule: Q01DX009 (ip), vehicle: saline with Tween-80); 97 % of control (dose: 50.0 mg/kg/injection, schedule: Q04DX003 (ip), vehicle: saline with Tween-80); 98 % of control under setting [17]; 96 % of control under setting [21].

On to `CC(=O)n1cc(F)c(=O)[nH]c1=O`, for which the T/C (dose: 2.1 mg/kg/injection, schedule: Q01DX009 (ip), vehicle: saline with Tween-80) is 108 % of control; the T/C (dose: 3.1 mg/kg/injection, schedule: Q01DX009 (ip), vehicle: saline with Tween-80) was 111 % of control; the T/C (dose: 6.25 mg/kg/injection, schedule: Q04DX003 (ip), vehicle: saline) was 108 % of control; the T/C (dose: 12.5 mg/kg/injection, schedule: Q04DX003 (ip), vehicle: saline) is 115 % of control; the T/C under setting [12] was 152 % of control; the T/C under setting [13] is 123 % of control. Further, the T/C was 151 % of control under setting [14]; 101 % of control under setting [22]; 188 % of control under setting [21]; 207 % of control under setting [9]; 152 % of control (dose: 150.0 mg/kg/injection, schedule: Q01DX001 (ip), vehicle: saline); 113 % of control under setting [10]. For the same compound, the T/C (dose: 300.0 mg/kg/injection, schedule: Q01DX001 (ip), vehicle: saline) is 151 % of control.

As for `Cc1c[nH]c(=O)c[n+]1[O-]`, the T/C reads like this: under setting [9], 97 % of control; under setting [10], 100 % of control; under setting [11], 100 % of control.

`O=C(Cn1ccc(O)cc1=O)N1CCC2(CC1)SSC1(CCN(C(=O)Cn3ccc(O)cc3=O)CC1)S2`: the T/C runs as follows: under setting [22], 86 % of control; under setting [9], 102 % of control; (dose: 200.0 mg/kg/injection, schedule: Q01DX009 (ip), vehicle: saline) 93 % of control; under setting [10], 94 % of control; (dose: 400.0 mg/kg/injection, schedule: Q01DX009 (ip), vehicle: saline) 94 % of control; under setting [11], 88 % of control.
